Here are results for four compounds from patent US4990337A (priority 1988, dated 1991).

The series is described as follows: Test Example 2: emulsifiability of intermediate molecular weight fatty acid glycerides in water, test tube shaking. Format: physicochemical. The following applies: 1 ml glyceride and 9 ml water; for Emulsifiability: test tube shaken; for stability of the emulsion (separation between oil and water): on standing. The procedure:
1 ml of an intermediate molecular weight fatty acid glyceride and 9 ml of water were placed in a test tube, and the test tube was shaken lightly to examine the emulsifiability of the intermediate molecular weight fatty acid glyceride.
The intermediate molecular weight fatty acid glycerides examined in this Example were caprylic acid mono-, di- and tri- glycerides and caproic acid diglyceride.

As for Caproic acid diglyceride, the Emulsifiability result is given as “intermediate emulsifiability”.
Turning to `CCCCCCCC(=O)OCC(COC(=O)CCCCCCC)OC(=O)CCCCCCC` [Caprylic acid triglyceride], the “stability of the emulsion (separation between oil and water)” value is “tended to separate into oil and water”; the Emulsifiability result is reported as “emulsified only after vigorous shaking by hand”.
With caprylic acid diglyceride, the Emulsifiability entry is “intermediate emulsifiability”.
As to Caprylic acid monoglyceride, the “stability of the emulsion (separation between oil and water)” value is “the emulsion was very stable”; the Emulsifiability entry is “emulsified in a manner very close to self-emulsification”.
